From US6864251B2, “Treatment of LTB4-mediated inflammatory disorders with optically-pure (R)-2,3-benzodiazepines” (Vela Pharmaceuticals, Inc., priority 2002, dated 2005)
Where “and” joins values, the source holds several entries; their conditions need not be identical. Equal entries are not always repeated.

How the values were obtained:
LTB4 receptor = LTB4 receptor (Cavia porcellus, UniProt H0VYV8); experiment: LTB4 binding assay, displacement of [3H]LTB4, guinea pig spleen membrane
Procedure: Reactions were carried out in a phosphate buffer (pH 7.4) containing NaCl, MgCl2, EDTA, and bacitracin. The reaction volume of 150 μL containing 1.0 mg/mL of the Guinea pig spleen membrane preparation and 1 nM [^3H]LTB4, with or without a competitor, was incubated at 0-4° C. for 2 hours. Competitors included 2,3-benzodiazepines, and LTB4 as a control. The reaction was terminated by rapid vacuum filtration onto glass fiber filters. The filter was washed with cold buffer, dried and placed in a scintillation vial. Radioactivity trapped onto the filters was determined and compared to control values in order to ascertain any interactions of the test compound with the LTB4 binding site.

[1] = system: LTB4-induced dermal inflammation; experiment: Rabbit model of LTB4-induced dermal inflammation, histopathology of intradermal challenge sites; assay type: in vivo, New Zealand White Rabbits; set-up: key to Inflammation score / Edema score: 0=normal; T=trace; 1=minimal; 2=mild; 3=moderate; 4=marked; conditions: test article IP 60 mg/kg (dexamethasone 0.5 mg/kg), 4 hr after challenge
Procedure: Test compounds were prepared as follows. The vehicle was first prepared by dissolving […] of hydroxypropylmethylcellulose 2910 (HPMC)(Sigma Chemical, St. Louis, Mo.) in 50 mL of 0.9% saline to yield a concentration of 2% HPMC. The three test articles, (R)-, (S)- and racemic tofisopam, were formulated by adding 1 g of each test article to 10 mL of vehicle.
On Day 0, the rabbits were sedated with ketamine/xylazine (35/5 mg/kg, s.c.) and an area of approximately 8×14 cm on the back was closely and carefully clipped to expose the skin, but not inflame or otherwise damage the epithelium. A grid of ten squares each approximately 2.5×2.5 cm was drawn on each animal's back using an indelible marker. The animals were then dosed intraperitoneally with the appropriate test article corresponding to the group. Thirty minutes after dosing with test or control article, the animals were challenged intradermally with the LTB4 or LTB4-aminopropamide (LTB4-AP, a synthetic LTB4 agonist) in the appropriate site as shown in Table 4. Each injection site was marked with an indelible marker in order to identify the exact location of the intradermal injection site. Sixty minutes after challenge, the animals were treated again with tofisopam or control articles. The animals were sacrificed 4 hrs. after challenge, and the intradermal injection sites were excised, fixed in 10% neutral buffered formalin (NBF), and submitted for histopathology. H&E-stained sections were read by a board-certified veterinary pathologist using light microscopy.
All animals were sacrificed 4 hr after challenge. The intradermal challenge sites were excised, placed on unique cardboard squares, fixed in 10% NBF, and submitted for histopathology. The skin sections included the epidermis and the subcutis, down to the back musculature.
The marked skin sections were fixed for at least 48 hours on small cardboard squares. At gross trimming, three levels were cut through marked skin region in order to assure that the injection sites is brought into the plane of section. The skins were gross trimmed, processed by dehydration, embedded in paraffin, sectioned at 3-5 μm, and stained with hematoxylin and eosin.
The tissues were evaluated histopathologically via light microscopy by a board-certified veterinary pathologist. Initially, the identity of the slides was masked in order to perform the initial evaluation and rank the slides. The slides were then unmasked and there was a careful assessment of the lesions and careful comparison of the tofisopam-treated sites to the vehicle and positive control tissues. The lesions were graded based upon the degree of inflammation and the degree of edema. The severity of the inflammation and edema was keyed as follows: 0=normal; T=trace; 1=minimal; 2=mild; 3=moderate; 4=marked.

Sequence of LTB4 receptor (H0VYV8 1-348): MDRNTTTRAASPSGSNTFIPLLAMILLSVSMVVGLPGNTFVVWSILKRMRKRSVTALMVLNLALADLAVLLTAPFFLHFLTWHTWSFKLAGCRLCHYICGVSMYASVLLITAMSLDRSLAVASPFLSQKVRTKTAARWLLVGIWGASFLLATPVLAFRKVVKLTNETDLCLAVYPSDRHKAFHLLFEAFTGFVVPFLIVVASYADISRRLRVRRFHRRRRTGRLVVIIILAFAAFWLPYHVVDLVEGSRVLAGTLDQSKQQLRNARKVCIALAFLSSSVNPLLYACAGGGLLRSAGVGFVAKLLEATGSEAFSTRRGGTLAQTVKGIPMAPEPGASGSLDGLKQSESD

| SMILES | Ki (LTB4 receptor) [pM] | Edema score ([1]; injection site: LTB4 500 ng) | Inflammation score ([1]; injection site: LTB4 500 ng) | Edema score ([1]; injection site: LTB4 1000 ng) | Inflammation score ([1]; injection site: LTB4 1000 ng) | Edema score ([1]; injection site: LTB4 2000 ng) | Edema score ([1]; injection site: LTB-ap 500 ng) | Inflammation score ([1]; injection site: LTB-ap 500 ng) | Edema score ([1]; injection site: LTB-ap 1000 ng) | Inflammation score ([1]; injection site: LTB-ap 1000 ng) | Edema score ([1]; injection site: LTB-ap 2000 ng) | Inflammation score ([1]; injection site: LTB-ap 2000 ng) | Edema score ([1]; injection site: Vehicle 0 ng) | Inflammation score ([1]; injection site: Vehicle 0 ng) |
| --- | --- | --- | --- | --- | --- | --- | --- | --- | --- | --- | --- | --- | --- | --- |
| CCCCC/C=C\C[C@@H](O)/C=C/C=C/C=C\[C@@H](O)CCCC(=O)O [LTB4, Leukotriene B4] | 200 to 900 |  |  |  |  |  |  |  |  |  |  |  |  |  |
| C[C@@H]1C[C@H]2[C@@H]3CCC4=CC(=O)C=C[C@]4(C)[C@@]3(F)[C@@H](O)C[C@]2(C)[C@@]1(O)C(=O)CO [dexamethasone] |  | 2 and 3 | 2 and 3 | 2 and 3 | 3 | 3 and 2 and 1 | 2 and 3 | 3 and 2 | 3 | 2 | 3 and 1 and 2 | 2 and 1 | 1 and 0 | 1 and 0 |
